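Assay format: 96-well plates, 48-hour exposure. The concentration for 50% growth inhibition is given as GI50. TGI marks complete inhibition of growth.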

Holding throughout (experiment): NCI anticancer screen, dose series, 48 h
The subject of assay [1] is MDA-MB-231 breast.
Assay [2] concerns SF-295 CNS.
Assay [3] concerns RXF 393 renal.
The test system of assay [4] is U251 CNS.
The subject of assay [5] is SF-268 CNS.
The subject of assay [6] is KM12 colon.
Assay [7] has as its system SN12C renal.
Assay [8] has as its system HOP-92 NSCLC.
The subject of assay [9] is BT-549 breast.
Assay [10] has as its system NCI-H23 lung.

Take `COc1ccc2c(c1)OCC1c3cc(OC)ccc3OC21` (centres undefined): the GI50 is 46.4 µM in assay [1]; 20.4 µM in assay [2]; 58 µM in [3]; 58 µM in assay [4]; 50.5 µM in assay [5]; 43.3 µM in assay [6]. The GI50 is 74.3 µM in assay [7], 60.3 µM in assay [8], 34.4 µM in assay [9] and 36.2 µM in assay [10]. The TGI in assay [1], in assay [2], in assay [3], in assay [4], in assay [5] and in [6] was greater than 100 µM in each case. In addition, the TGI in assay [7], in assay [8], in assay [9] and in assay [10] was greater than 100 µM in each case.
As to `C=C1C(=O)O[C@H]2[C@H]1CC/C(COC(=O)NCc1ccc(Cn3c(=O)sn(CCCI)c3=O)cc1)=C\CC[C@@]1(C)O[C@@H]21`, the GI50 in assay [1] was 1.75 µM; in [2], 14.4 µM; in assay [3], 1.52 µM; in assay [4], 1.75 µM; in assay [5], 2.54 µM; in assay [6] it was 7.98 µM. Also, the GI50 in [7] was 1.57 µM; in [8], 1.22 µM; in [9] it was 1.37 µM; in assay [10], 2.11 µM. Further, the TGI is 3.56 µM in [1]; 30.8 µM in assay [2]; 2.95 µM in assay [3]; 3.68 µM in assay [4]; 7.41 µM in assay [5]; 24.8 µM in assay [6]. The TGI in assay [7] came to 3.62 µM; in assay [8], 2.83 µM; in [9], 2.84 µM; in [10], 4.91 µM.
On to `CC(C)OC(=O)OCOP(=O)(OCOC(=O)OC(C)C)C1CCCN(O)C1=O` (centres undefined), for which the GI50 was 0.632 µM in [1]; 7.14 µM in [2]; 0.316 µM in assay [3]; 1.76 µM in [4]; 3.07 µM in assay [5]; 0.879 µM in [6]. Besides, the GI50 in assay [7] was 0.281 µM; in [8], 0.566 µM; in assay [9], 0.468 µM; in [10], 8.47 µM. Also, the TGI is greater than 100 µM in [1]; greater than 100 µM in assay [2]; 2.88 µM in assay [3]; greater than 100 µM in [4]; greater than 100 µM in assay [5]; greater than 100 µM in assay [6]. The TGI in assay [7] was greater than 100 µM; in [8], 7.91 µM; in [9], 11.7 µM; in assay [10], greater than 100 µM.
As for `C=C(C)[C@@H]1CC[C@]2(C(=O)OC)CC[C@]3(C)[C@H](CC[C@@H]4[C@@]5(C)CC/C(=N\OCCC(=NCCC#N)NOCCC#N)C(C)(C)[C@@H]5CC[C@]43C)[C@@H]12`, the GI50 in assay [1] is 10.3 µM; in [2] it was 21.4 µM; in assay [3], 5.64 µM; in assay [4], 4.3 µM; in assay [5] it was 11.4 µM; in assay [6], 9.35 µM. Also, the GI50 in assay [7] was 7.28 µM; in [8], 6.9 µM; in assay [9] it was 11.3 µM; in assay [10] it was 7.59 µM. For the same compound, the TGI is greater than 50 µM in assay [1]; greater than 50 µM in [2]; 16.6 µM in assay [3]; 12.4 µM in [4]; greater than 50 µM in assay [5]; greater than 50 µM in assay [6]. Further, the TGI in assay [7] was 14.7 µM; in assay [8], 35 µM; in [9] it was greater than 50 µM; in assay [10], greater than 50 µM.
Take `O=c1c2cc(F)ccc2sc2c(NCCCNCCO)nc3ccc(F)cc3c12`: the GI50 in [1] is 1.45 µM; in [2] it was 1.77 µM; in [3], 1.51 µM; in assay [5], 1.57 µM; in [6], 1.84 µM; in [7], 1.58 µM. Besides, the GI50 is 1.31 µM in assay [8], 11.1 µM in assay [9] and 1.81 µM in [10]. Besides, the TGI is 2.88 µM in assay [1]; 3.23 µM in assay [2]; 2.95 µM in assay [3]; 3.22 µM in assay [5]; 3.58 µM in [6]; 3.05 µM in assay [7]. The TGI in [8] is 5.2 µM; in assay [9], 26.7 µM; in assay [10], 3.28 µM.
Take `CCc1ccc2cc3c(ccc4ccccc43)c3c2c1CC3`: the GI50 in [1], in assay [3], in [5], in [6], in assay [7] and in [8] was greater than 100 µM throughout. In addition, the GI50 in [9] and in assay [10] was greater than 100 µM throughout. For the same compound, the TGI in assay [1], in assay [3], in assay [5], in assay [6], in [7] and in assay [8] was greater than 100 µM in each case. For the same compound, the TGI in assay [9] and in assay [10] was greater than 100 µM each time.
In the case of `COc1cc2nc(NC3CCC3)nc(NC3CCN(C(C)C)CC3)c2cc1OC`, the GI50 was 1.84 µM in assay [1]; 1.87 µM in [2]; 1.38 µM in [3]; 1.95 µM in assay [4]; 2.5 µM in assay [5]; 4.01 µM in assay [6]. Moreover, the GI50 is 3.92 µM in assay [7], 1.46 µM in assay [8], 1.71 µM in [9] and 4.61 µM in assay [10]. Also, the TGI was found to be 3.79 µM in assay [1]; 3.67 µM in [2]; 2.85 µM in [3]; 4.52 µM in assay [4]; 8.88 µM in assay [5]; 14.7 µM in assay [6]. Further, the TGI was determined as 16.1 µM in [7], 3.64 µM in [8], 3.7 µM in assay [9] and 17.7 µM in assay [10].

The values above are taken from PubChem BioAssay (NCI).
